Test results taken from patent publication US20240279602A1, “METHOD FOR PRODUCING CEREBRAL CORTICAL CELL PREPARATION DERIVED FROM HUMAN PLURIPOTENT STEM CELLS” (Kyoto University, priority 2021, published 2024).

How the values were obtained:
cerebral organoids [1] = test: Immunostaining of cell aggregates after DAPT treatment; format: cell-based, human
Procedure: Organoids were fixed with 4% paraformaldehyde for 30 minutes, subjected to dehydration reaction with 30% (w/v) sucrose in PBS, and embedded with O.C.T. compound (Sakura Finetek Japan Co., Ltd.). Frozen sections were prepared in a thickness of 16 μm by using a cryostat (CM1850, Leica Biosystems Nussloch GmbH). Permeabilization was performed with 0.3% or 2% (v/v) Triton-X100, and, as necessary, antigen retrieval reaction was performed. Blocking was performed with Block ACE (KAC Co., Ltd.), and double- or triple-label staining was then performed. Primary antibodies and secondary antibodies for use in immunostaining were diluted to recommended concentrations before use.
As illustrated by a scheme shown in FIG. 11(A), in step (ii), cerebral organoids were screened on day 33 after the initiation of induction of differentiation (Day 33), the culture medium was replaced with one obtained by adding 10 μM DAPT to the culture medium in step (2b), and suspension culture was performed at 37° C. under 5% CO2 for 3 days. As a result, cerebral cortical cell aggregates were obtained.
The cerebral cortical cell aggregates (Day 36) and high-purity cerebral cortical cell aggregates (Day 40) were further immunostained for the cortical layer V/VI progenitor cell (deep layer) marker Ctip2, the telencephalon marker Foxg1, the neural stem cell (radial glia) marker […], and the proliferative cell marker Ki67.
Organoids on Day 25, Day 32, Day 39, and Day 72 (the periods of induction of differentiation: about 4 weeks, 5 weeks, 6 weeks, and 10 weeks, respectively) were cultured in the presence or absence of DAPT for 3 days, and the organoids on Day 28 (4 wk), Day 42 (6 wk), and Day 75 (10 wk) were analyzed for different markers by immunostaining. […] Satb2 is a cortical layer II-IV progenitor cell (upper layer) marker.

cerebral organoids [2] = test: RT-qPCR of marker gene expression after DAPT treatment; format: cell-based, human; details: for expression of Hes1: single-cell DAPT method (step (iv))
Procedure: Total RNA was obtained with an RNeasyMicroKit (QIAGEN), and reverse transcription reaction was performed with a SuperScript III First-Strand Synthesis System ([…]) in accordance with a protocol from the provider. Quantitative PCR was carried out by using TaqMan (TM) Gene Expression Master Mix (Thermo Fisher Scientific Inc.) or SYBR Green Master Mix (Thermo Fisher Scientific Inc.) in accordance with instruction from the manufacturer. The expression levels of genes were normalized to that for GAPDH by using the […] method.
To analyze the influence of the DAPT treatment period on differentiation, cerebral organoids in week 7 of induction of differentiation were treated with 10 μM DAPT for 3 to 7 days according to a method or scheme shown in FIG. 16(A) (organoid DAPT method), and the variation of gene expression was analyzed by RT-qPCR; the results are shown in FIG. 16(B). The ordinate represents relative expression levels to GAPDH.
Furthermore, organoids on Day 25, Day 32, Day 39, and Day 72 (the periods of induction of differentiation: about 4 weeks, 5 weeks, 6 weeks, and 10 weeks, respectively) were cultured in the presence or absence of DAPT for 3 days, and the cerebral organoids on Day 28 (4 wk), Day 35 (5 wk), Day 42 (6 wk), and Day 75 (10 wk) were analyzed for the expression levels of marker genes by RT-qPCR; the results of analysis of the relative expression levels of the markers are shown in FIG. 18. […] For the organoids in week 10, no reduction in expression of Ki67 was found, and no influence was found in expression of Satb2, too.
In the “single-cell DAPT method (DAPT treatment is performed in step (iv))” in FIG. 24(B), cerebral organoids were screened on day 38 after the initiation of induction of differentiation and dispersed into single cells by the method described for step (iii) in Example 4, and the cells were then suspended in a culture medium obtained by adding 10 ng/mL GDNF, 20 ng/mL BDNF, 200 μM ascorbic acid, 400 μM dibutyryl-cAMP, and 30 μM Y-27632 to the culture medium in step (2b) with addition of DAPT at a concentration of 0 μM, 0.1 μM, 1 μM, or 10 μM. Subsequently, the cells were regathered by the method described for step (iv) in Example 4 in the presence of DAPT, and cultured for 1 day, 2 days, or 3 days. Thereafter, the culture medium was switched to a culture medium obtained by adding 10 ng/mL GDNF, 20 ng/mL BDNF, 200 μM ascorbic acid, and 400 μM dibutyryl-cAMP to the culture medium in step (2b), and culture was continued until day 10 after the initiation of reaggregation. The cells on day 3, day 4, or day 10 after the initiation of reaggregation were analyzed by RT-qPCR, and the cells on day 10 were analyzed by flow cytometry; the results are shown in FIGS. 25 to 27.

[3] = organoids Day 33, 10 μM DAPT for 3 days, Day 36
[4] = organoids in week 4 to week 6, DAPT for 3 days
[5] = organoids in week 10, DAPT for 3 days
[6] = cerebral organoids in week 7, 10 μM DAPT for 3 to 7 days (organoid DAPT method)

C[C@H](NC(=O)Cc1cc(F)cc(F)c1)C(=O)N[C@H](C(=O)OC(C)(C)C)c1ccccc1 [DAPT, N-[N-(3,5-difluorophenacetyl)-L-alanyl]-S-phenylglycine t-butyl ester]
cerebral cortex-like layered structure (immunostaining) (cerebral organoids [1]; [3]): no cerebral cortex-like layered structure was found | expression of Ki67 (immunostaining) (cerebral organoids [1]; [3]): almost no expression | number of Ctip2/Bf1-co-positive cells (cerebral organoids [1]; [4]): increased number | number of Ki67-positive cells (cerebral organoids [1]; [4]): decreased number | proportion of Ctip2-positive cells and that of Satb2-positive cells (cerebral organoids [1]; [5]): no significant change | expression of Ctip2 (cerebral organoids [2]; [6]): enhanced as the DAPT treatment period was prolonged | expressions of Pax6, Sox2, and Ki67 (cerebral organoids [2]; [6]): declined as the DAPT treatment period was extended | expression of Ctip2 (cerebral organoids [2]; [4]): enhanced expression | expression of Pax6 and Ki67 (cerebral organoids [2]; [4]): reduced expression | expression of Ki67 (cerebral organoids [2]; [5]): no reduction | expression of Satb2 (cerebral organoids [2]; [5]): no influence | expression of Hes1 (cerebral organoids [2]; 10 μM DAPT, 1-day and 2-day treatment, as culture proceeded): upregulated again | expression of Hes1 (cerebral organoids [2]; 10 μM DAPT, 3-day treatment): suppressed over the 10 days | expression of Hes1 (cerebral organoids [2]; DAPT 0.1 to 1 μM, 3 days): not sufficiently suppressed
